Laboratory results from patent US20030108893A1, “Method for establishing neurogically relevant properties of a material” (priority 1999, published 2003).

How the values were obtained:
threadworm (C. elegans) [1] = assay: Neurotoxic substance administered to nematodes in liquid medium; behavior or morphology phenotype observed; type: in vivo, Caenorhabditis elegans; details: for behavioral anomalies or changes in morphology after administration of neurotoxic compound: nematodes (threadworms), general finding
Description: The response to the administration of neurotoxic substances which act on the central nervous system was investigated in nematodes of the genus Caenorhabditis and, in particular, in Caenorhabditis elegans. In this threadworm, a characteristic phenotype, which is expressed, for example, in movement disturbances, a reduced number of progeny or morphological changes,; is observed both in the larval stages L1, L2, L3 and L4 (see “The Nematode Caenorhabditis elegans”; Wood et al., Cold Spring Harbor Laboratory, 1988) and in the adult stage following incubation with a neurotoxic substance. This can be ascertained by observing the phenotype microscopically, by determining the number of progeny per animal and time period or by detecting nerve cells which have been labeled with particular dyes (e.g. GFP fusion proteins) and whose color changes after they have been acted upon by a neurotoxic substance.
(§1) Per assay, about 100 threadworm (C. elegans) test animals at a defined stage of development (e.g. L1 larval stage) were incubated in liquid medium at constant temperature (e.g. 20° C.). […]
This can be expressed in severe movement disturbances, a reduced number of progeny or morphological changes.

threadworm (C. elegans) [2] = assay: Preincubation with test material before MPTP; reversion or prevention of the MPTP phenotype; type: in vivo, Caenorhabditis elegans; details: 100 C. elegans; three days of preincubation with L-DOPA, MPTP added on the third day; observed on day 6 (Figure B)
Description: It is possible to expose the nematodes to the materials to be investigated in a wide variety of ways. For example, it is possible to culture the animals in Petri dishes containing an agar which contains neurotoxic substances, on the one hand, and the substances of interest on the other. However, it is also possible to bathe the animals, in a simple manner, in the materials to be investigated. As well as being particularly simple, this variant also makes it possible to standardize the concentrations more easily and to achieve a higher throughput in a screening system. For an investigation, use is made of populations of the animals, which populations are then incubated with different solutions of the materials and at different concentrations. […] The observation, namely the reversion or prevention of the behavioral anomaly or the morphological change following neurotoxin treatment, makes it possible to draw a conclusion with regard to the possible activity and site of action of the material whose suitability as a drug is under investigation.
as §1

SMILES	behavioral anomalies or changes in morphology after administration of neurotoxic compound (threadworm (C. elegans) [1])	expression of the phenotype brought about by MPTP after incubation with test material (threadworm (C. elegans) [2])	characteristic phenotype (severe movement disturbances, reduced number of progeny or morphological changes) (threadworm (C. elegans) [1]; about 100 C. elegans, e.g. L1 larval stage, liquid medium, e.g. 20° C., MPTP 16 to 500 μg/ml, observed e.g. on day 6 (Figure A))
NCCc1cc(O)c(O)cc1O [6-OHDA, 6-hydroxy-dopamine]	exhibit behavioral anomalies or changes in their morphology		
N[C@@H](Cc1ccc(O)c(O)c1)C(=O)O [L-DOPA, L-3,4-dihydroxyphenylalanine]		the phenotype which is brought about by MPTP is not expressed	
CN1CC=C(c2ccccc2)CC1 [MPTP, 1-methyl-4-phenyl-1,2,3,6-tetrahydropyridine]	exhibit behavioral anomalies or changes in their morphology		a characteristic phenotype was observed
